{
  "source": "patent US20200237852A1",
  "about": "“Small Molecule Enhancers of Paneth Cell Function and Differentiation” (Massachusetts Institute of Technology, priority 2019, published 2020)",
  "assay_type_in_all_cases": "cell-based, C57BL/6 mice",
  "key": {"ENR+CD organoids": {"system": "ENR+CD organoids", "assay": "Flow cytometry analysis, 3D culture, XPO1 inhibitors", "conditions": "6-day ENR+CD organoids", "description": "ISC-enriched organoids cultured in 3D Matrigel with ENRCV media were passaged to 24-well plate in 3D Matrigel with ENRCV. At day zero, media were replaced to ENRCD with or without indicated compounds, and media were replaced every other day. At day six, cells were washed with basal media, and then harvested from Matrigel by mechanical disruption in TrypLE Express (ThermoFisher, 12605010) to remove Matrigel and dissociate organoids to single cells. After vigorous pipetting and incubation at 37° C. for 20 min, dissociated organoids were strained through a 35 μm cell strainer into a tube (Falcon, 352235). The cell filtrate was centrifuged again at 300×g for 3 min at 4° C. to pellet the cells. Cell pellets were resuspended in FACS buffer (2% FBS in PBS), and then transferred to an ultra low-bind 96-well plate (Corning, 7007). Cells were stained with Zombie-violet viability dye (BioLegend, 423107) at 100× for viability staining and/or antibody staining solution. FITC-conjugated antibody for lysozyme (Dako, […]) and APC-conjugated antibody for CD24 (BioLegend, 138505) were used at 100× dilution. Flow cytometry was performed using an LSR Fortessa (BD; Koch Institute Flow Cytometry Core at MIT). The data were analyzed using FlowJo v10 software."}, "[1]": {"system": "ENR+CD and ENR organoid populations", "assay": "Population RNA-seq of organoids", "conditions": "3 days of treatment, all media conditions controlled, FDR<0.01", "excerpt": "To further assess the potential interaction of Wnt agonist CHIR99021 (C) and Notch inhibitor DAPT (D) with XPO1 inhibitors, we carried out an experiment where we assessed bulk organoid population transcriptomes (with RNA-seq) from multiple variations on growth media, XPO1 inhibitor, and duration of treatment (FIG. 12A). To characterize the resulting cell phenotypes, we used aggregate scores of geneset enrichment (based on module scoring as implemented in^7) from the in vivo Paneth and related enteroendocrine cell populations (genesets taken from^6). We see that again for both ENR+CD treated (FIG. 12B) and ENR treated (FIG. 12C) organoid populations, XPO1 inhibition drives enrichment in Paneth cell defining genes, principally at 3 days of treatment. […]\nPopulation RNA-seq was performed using a derivative of the Smart-Seq2 protocol for single cells^1,2. […] Libraries were pooled post-Nextera and cleaned using Agencourt AMPure SPRI beads with successive 0.7× and 0.8× ratio SPRIs and sequenced with an Illumina 75 Cycle NextSeq500/550v2 kit (Illumina FC-404-2005) with loading density at 2.2 pM, with paired end 35 cycle read structure. Samples were sequenced at an average read depth of 8.44 million reads per sample and a total of 96 samples. […]"}, "[2]": {"system": "organoids differentiated under ENR+CV, ENR+CD, or ENR", "assay": "Western blotting for LYZ in organoids", "conditions": "six days in ENR+CV", "excerpt": "ISC-enriched organoids cultured in 3D Matrigel with ENRCV media were passaged to 24-well plate in 3D Matrigel with ENRCV. At day zero, media were replaced to ENR or ENRCD with or without indicated compounds, and media were replaced every other day. At day six, cells were harvested from Matrigel by mechanical disruption and suspended in basal media. Cell pellets were lysed with Pierce® IP lysis buffer (ThermoFisher, 87787) containing Halt™ Protease Inhibitor Cocktail, EDTA-Free (ThermoFisher, 87785) after 3-minute centrifuge at 300×g at 4° C. Cell extracts were resolved by NuPAGE® SDS-PAGE Gel system (ThermoFisher) and electroblotted onto polyvinylidene difluoride membranes using Criterion™ Blotter (Biorad). The membranes were blocked with 2% Blotting-Grade Blocker (Biorad, 1706404) in TBS-T (50 mM Tris-HCl, 150 mM NaCl, and 0.1% Tween 20, pH 8.0) and then probed with appropriate antibodies. Detection was performed using ECL Select™ Western Blotting Detection Reagent (Amersham, 45-000-999) and ImageQuant LAS4000 (GE Healthcare)."}, "[3]": {"system": "ISC-enriched organoids in ENR+CD", "assay": "384-well secondary screen in ENR+CD incl. early vs. full treatment, secreted LYZ (LYZ.NS, LYZ.S)", "excerpt": "(§1) We again assessed treatment effect size with replicate SSMD (using a difference between well replicates and median assay value for all same-plate control wells—see Materials and Methods, High-throughput screening: 384-well secondary screen format and early vs. full treatment analysis) and hits were considered statistically validated by an SSMD greater than the false-positive-derived cutoffs (βα1=0.89 for 8 replicates with alpha=0.05; see Materials and Methods, High-throughput screening: 384-well secondary screen format and early vs. full treatment analysis) for both LYZ.NS and LYZ.S assays (FIG. 7A). Per this new cutoff, 10 dose-treatment combinations corresponding to 7 small molecules were chosen as hits, with every passing dose-treatment having a greater than 0 ATP effect size.\nFor 384-well plate high-throughput screening, ISC-enriched organoids were passaged and split to single cells with TyrpLE (Thermo Fisher Scientific) and cultured for 2-3 days in ENR+CVY prior to transfer to a “2.5-D” 384-well plate culture system. To prepare for “2.5D” plating, cell-laden Matrigel and media were homogenized via mechanical disruption and centrifuged at 300 g for 3 min at 4° C. Supernatant was removed and the pellet washed and spun in basal culture medium repeatedly until the cloudy Matrigel above the cell pellet was gone. On the final wash, pellet was resuspended in basal culture medium, the number of organoids counted, and the cell pellet was resuspended in ENR+CD medium at ˜7 clusters/μL. 384-well plates were first filled with 10 μL of 70% Matrigel (30% basal media) coating in each well using a Tecan Evo 150 Liquid Handling Deck, and allowed to gel at 37° C. for 5 minutes. Then 30 μL of cell-laden media was plated at the center of each well of 384-well plates with the liquid handler, and the plates were spun down at 50 g for 1 minute to embed organoids on the Matrigel surface. Compound libraries were pinned into prepped cell plates using 50 nL pins into 30 μL media/well. Cells were cultured at 37° C. with 5% CO2 for six days in ENR+CD medium supplemented with the tested compounds with a media change at three days. On day six, lysozyme secretion and cell viability were assessed using Lysozyme Assay Kit (EnzChek) and CellTiter-Glo 3D Cell Viability Assay (Promega), respectively, according to the manufacturers' protocols. Briefly, screen plates were washed 3× with FluoroBrite basal media (2 mM GlutaMAX and 10 mM HEPES in FluoroBrite DMEM (Thermo Fisher Scientific)) using a BioTek 406 plate washer with 10 min incubations followed by a 1 min centrifugation at 200 g to settle media between washes. After removal of the third wash, 30 μL of non-stimulated FluoroBrite basal media was added to each screen well using a Tecan Evo 150 Liquid Handling Deck from a non-stimulated treatment master plate, and plates were incubated for 30 min at 37° C. After 30 minutes, the top 15 μL of media from each well of the screen plate was transferred to a non-stimulated LYZ assay plate containing 15 μL of 20× DQ LYZ assay working solution using a Tecan Evo 150 Liquid Handling Deck. The non-stimulated LYZ assay plate was covered, shaken for 10 min, incubated for 50 min at 37° C., then fluorescence measured (shake 10 s; […]/518 nm) using a Tecan M1000 Plate Reader. After the media transfer to the non-stimulated LYZ assay plate, the remaining media was removed from the screen plate and 30 μL of Stimulated FluoroBrite basal media (supplemented with 10 μM CCh) was added to each screen well using a Tecan Evo 150 Liquid Handling Deck from a stimulated treatment master plate, and plates were incubated for 30 min at 37° C. After 30 minutes, the top 15 μL of media from each well of the screen plate was transferred to a stimulated LYZ assay plate containing 15 μL of 20× DQ LYZ assay working solution using a Tecan Evo 150 Liquid Handling Deck. […]"}, "[4]": {"system": "ISC-enriched organoids in ENR+CD", "assay": "384-well secondary screen in ENR+CD, ATP assay", "conditions": "100 nM", "excerpt": "as §1, with “Per this new cutoff, 10 dose-treatment combinations corresponding to 7 small molecules were chosen as hits, with every passing dose-treatment having a greater than 0 ATP effect size.” left out\nFor 384-well plate high-throughput screening, ISC-enriched organoids were passaged and split to single cells with TyrpLE (Thermo Fisher Scientific) and cultured for 2-3 days in ENR+CVY prior to transfer to a “2.5-D” 384-well plate culture system. […] On the final wash, pellet was resuspended in basal culture medium, the number of organoids counted, and the cell pellet was resuspended in ENR+CD medium at ˜7 clusters/μL. […] On day six, lysozyme secretion and cell viability were assessed using Lysozyme Assay Kit (EnzChek) and CellTiter-Glo 3D Cell Viability Assay (Promega), respectively, according to the manufacturers' protocols. […]"}, "[5]": {"system": "conventional organoid (ENR)", "assay": "384-well screen in conventional organoid (ENR), secreted LYZ (LYZ.NS, LYZ.S)", "conditions": "6-day ENR+treatment, single treatment-dose"}},
  "data": [
    {"smiles": "NC(=O)/C(=C/n1cnc(-c2cc(C(F)(F)F)cc(C(F)(F)F)c2)n1)c1cncnc1", "note": "[KPT-8602]", "values": [
      {"measurement": "Paneth cell representation by flow cytometry", "setting": "ENR+CD organoids", "value": "statistically significant increases in Paneth cell representation"},
      {"measurement": "identity of the majority of significantly up-regulated genes relative to no treatment (DESeq2)", "setting": "[1]", "value": "known Paneth cell lineage-defining genes"},
      {"measurement": "LYZ abundance on a per-mass protein normalized basis (western blot)", "setting": "[2]", "value": "appreciably increase LYZ abundance"}
    ]},
    {"smiles": "Cc1[nH]c(/C=C2\\C(=O)Nc3ccc(S(=O)(=O)Cc4c(Cl)cccc4Cl)cc32)c(C)c1C(=O)N1CCC[C@@H]1CN1CCCC1", "note": "[PHA-665752]", "values": [
      {"measurement": "validation in secondary screen (SSMD above cutoff for both LYZ.NS and LYZ.S)", "setting": "[3]; 6-day ENR+CD+treatment vs ENR+CD+DMSO, cutoff 0.89, 8 replicates", "value": "multiple validated doses"},
      {"measurement": "LYZ.NS/ATP, early versus full treatment", "setting": "[3]; ENR+CD, 100 nM", "value": "significant difference (adj. p<0.05) between early and full"},
      {"measurement": "LYZ.S/ATP, early versus full treatment", "setting": "[3]; ENR+CD, 100 nM", "value": "suggestive trend"},
      {"measurement": "improvement in function, early (first 3 days) versus full 6-day treatment, LYZ.NS and LYZ.S assays", "setting": "[3]; ENR+CD, maximal validated dose", "value": "significantly (adj. p<0.05) lower improvement in function with early treatment versus full"},
      {"measurement": "ATP alone, early versus full treatment", "setting": "[4]", "value": "no difference in ATP alone"},
      {"measurement": "LYZ.NS reading versus ENR+DMSO", "setting": "[5]", "value": "significantly lower LYZ.NS"}
    ]}
  ]
}
